Data: the supplement of paper PMC10307832

Legend:
Test in all cases: relative viability (nuclei count vs DMSO), 5 days (fraction); higher = more cells survive
Kobe2602 + Tozasertib = compound: C1=CC(=CC=C1NC(=S)NNC2=C(C=C(C=C2[N+](=O)[O-])C(F)(F)F)[N+](=O)[O-])F [Kobe2602] + Cc1cc(Nc2cc(N3CCN(C)CC3)nc(Sc3ccc(NC(=O)C4CC4)cc3)n2)n[nH]1 [Tozasertib] (partner 0.1 µM)
In short: (§1)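 A single step with final 0.05% Triton X-100, 1% formaldehyde and 1 ug/ml Hoechst fixed the cells and stained nuclei 5 days after treatment. Lung cancer cell lines in 1536-well plates had been treated by pin tool the day after seeding with one drug alone or a fixed anchor-drug dose plus five library-drug doses (not always all listed) in √10 steps, and nuclei were counted on 4× images. Relative viability is the ratio of nuclei in treated wells to nuclei in vehicle wells, taken as the median of duplicate plates.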

[1] = compound: COc1cc2nccc(Oc3ccc(NC(=O)C4(C(=O)Nc5ccc(F)cc5)CC4)cc3)c2cc1OC [Cabozantinib] + CC(=O)Nc1cccc(-n2c(=O)n(C3CC3)c(=O)c3c(Nc4ccc(I)cc4F)n(C)c(=O)c(C)c32)c1 [Trametinib] (partner 0.02 µM)
In short: as §1

[2] = compound: COc1cc2nccc(Oc3ccc(NC(=O)C4(C(=O)Nc5ccc(F)cc5)CC4)cc3)c2cc1OC [Cabozantinib] + Nc1nc2[nH]cc(CCc3ccc(C(=O)N[C@@H](CCC(=O)O)C(=O)O)cc3)c2c(=O)[nH]1 [Pemetrexed] (partner 0.2 µM)
In short: as §1

Zosuquidar + Dasatinib = compound: O[C@@H](COc1cccc2ncccc12)CN1CCN([C@@H]2c3ccccc3[C@@H]3[C@H](c4ccccc42)C3(F)F)CC1 [Zosuquidar] + Cc1nc(Nc2ncc(C(=O)Nc3c(C)cccc3Cl)s2)cc(N2CCN(CCO)CC2)n1 [Dasatinib] (partner 0.075 µM)
In short: as §1

Cell Line | relative viability (Kobe2602 + Tozasertib; first compound 0.2 µM) | relative viability (Kobe2602 + Tozasertib; first compound 0.6325 µM) | relative viability (Kobe2602 + Tozasertib; first compound 2 µM) | relative viability (Kobe2602 + Tozasertib; first compound 6.325 µM) | relative viability (Kobe2602 + Tozasertib; first compound 20 µM) | relative viability ([1]; first compound 0.02 µM) | relative viability ([1]; first compound 0.06325 µM) | relative viability ([1]; first compound 0.2 µM) | relative viability ([1]; first compound 0.6325 µM) | relative viability ([1]; first compound 2 µM) | relative viability ([2]; first compound 0.02 µM) | relative viability ([2]; first compound 0.06325 µM) | relative viability ([2]; first compound 0.2 µM) | relative viability ([2]; first compound 0.6325 µM) | relative viability ([2]; first compound 2 µM) | relative viability (Zosuquidar + Dasatinib; first compound 0.01 µM) | relative viability (Zosuquidar + Dasatinib; first compound 0.03162 µM) | relative viability (Zosuquidar + Dasatinib; first compound 0.1 µM) | relative viability (Zosuquidar + Dasatinib; first compound 0.3162 µM) | relative viability (Zosuquidar + Dasatinib; first compound 1 µM)
NCI-H1755 | 0.638 | 0.596 | 0.557 | 0.608 | 0.554 | 0.816 | 0.765 | 0.795 | 0.73 | 0.718 | 0.449 | 0.415 | 0.436 | 0.425 | 0.422 | 0.401 | 0.383 | 0.375 | 0.451 | 0.415
NCI-H1793 | 0.279 | 0.305 | 0.292 | 0.417 | 0.278 | 0.489 | 0.428 |  | 0.432 | 0.341 | 0.865 | 0.917 |  | 0.73 | 0.588 | 0.375 | 0.3 |  | 0.489 | 0.488
NCI-H1915 | 0.422 | 0.43 | 0.393 | 0.438 | 0.399 | 0.331 | 0.345 | 0.335 | 0.304 | 0.28 | 0.532 | 0.51 | 0.507 | 0.505 | 0.459 | 0.311 | 0.305 | 0.308 | 0.337 | 0.283
NCI-H1944 | 0.264 | 0.267 | 0.262 | 0.245 | 0.279 | 0.441 | 0.401 | 0.386 | 0.416 | 0.413 | 0.601 | 0.645 | 0.631 | 0.637 | 0.696 | 0.206 | 0.159 | 0.187 | 0.244 | 0.229
NCI-H1975 | 0.614 | 0.432 | 0.511 | 0.689 | 0.355 | 0.331 | 0.389 | 0.638 | 0.417 | 0.217 | 0.318 | 0.273 | 0.288 | 0.263 | 0.289 | 0.335 | 0.313 | 0.433 | 0.374 | 0.352
NCI-H1993 | 0.515 | 0.549 | 0.573 | 0.53 | 0.56 | 0.508 | 0.531 | 0.526 | 0.436 | 0.571 | 0.486 | 0.507 | 0.484 | 0.561 | 0.662 | 0.66 | 0.507 | 0.501 | 0.564 | 0.654
NCI-H2009 | 0.713 | 0.801 | 0.619 | 0.715 | 0.7 | 0.276 | 0.281 | 0.293 | 0.275 | 0.24 | 1.08 | 1.07 | 1.02 | 1 | 1.08 | 0.281 | 0.174 | 0.244 | 0.331 | 0.284
NCI-H2023 | 0.253 | 0.326 | 0.244 | 0.175 | 0.157 | 0.497 | 0.707 | 0.445 | 0.381 | 0.293 | 0.199 | 0.272 | 0.175 | 0.23 | 0.146 | 0.46 | 0.436 | 0.557 | 0.532 | 0.674
NCI-H2085 | 0.736 | 0.772 | 0.775 | 0.567 | 0.751 | 0.876 | 0.6 | 0.571 | 0.463 | 0.398 | 0.9 | 0.974 | 0.737 | 0.866 | 0.744 | 0.247 | 0.234 | 0.19 | 0.243 | 0.228
NCI-H2087 | 0.282 | 0.247 | 0.251 | 0.243 | 0.246 | 0.166 | 0.258 | 0.216 | 0.195 | 0.209 | 0.612 | 0.711 | 0.614 | 0.752 | 0.665 | 0.773 |  | 0.668 | 0.91 | 0.919
NCI-H2126 | 0.856 | 0.821 | 0.812 | 0.733 | 0.591 | 0.534 | 0.594 | 0.568 | 0.589 | 0.578 | 0.59 | 0.666 | 0.689 | 0.658 | 0.704 | 0.581 | 0.599 |  | 0.639 | 0.61
NCI-H2170 | 0.65 | 0.729 | 0.721 | 0.78 | 0.694 | 0.927 | 0.921 | 0.896 | 0.922 | 0.95 | 0.28 | 0.264 | 0.247 | 0.274 | 0.311 | 0.464 | 0.661 | 0.636 | 0.767 | 0.58
NCI-H2228 | 0.19 | 0.239 | 0.246 | 0.234 | 0.219 | 0.4 | 0.61 | 0.594 | 0.704 | 0.479 | 0.348 | 0.305 | 0.338 | 0.283 | 0.276 | 0.507 | 0.573 | 0.612 | 0.621 | 0.551
NCI-H2342 | 0.575 | 0.546 | 0.408 | 0.491 | 0.542 | 0.872 | 0.949 | 0.878 | 0.738 | 0.535 | 0.711 | 0.828 | 0.83 | 0.86 | 0.729 | 0.275 | 0.312 | 0.327 | 0.313 | 0.299
NCI-H2347 | 0.708 | 0.647 | 0.512 | 0.495 | 0.55 | 0.252 | 0.296 | 0.269 | 0.249 | 0.268 | 0.422 | 0.481 | 0.429 | 0.442 | 0.371 | 0.321 | 0.384 | 0.253 | 0.309 | 0.351
NCI-H2405 | 0.804 | 0.758 | 0.732 | 0.767 | 0.853 | 0.658 | 0.666 | 0.615 | 0.59 | 0.473 | 0.818 | 1.13 | 1.08 | 1.09 | 1.02 | 0.208 | 0.174 | 0.208 | 0.228 | 0.215
